This note sets out measurements from patent publication US20240000741A1, “ALL-TRANS RETINOIC ACID ENHANCES RADIOTHERAPY AND OVERCOMES IMMUNE SUPPRESSION FOR CANCER THERAPY” (The University of Chicago, priority 2022, published 2024).

Bounds are passed on as bounds.

Assay type in all cases: in vivo, mouse
Series [1] deals with MC38 colon carcinoma tumors. The experiment in a line: MC38 tumor growth after local ablative IR and/or RA.
Series [2] has as its system MC38 syngeneic subcutaneous flank tumor. The experiment in a line: ATRA-sensitized fractionated radiotherapy in MC38 tumor bearing C57BL/6 mice. As to conditions: 3 fractions. The protocol: A MC38 syngeneic subcutaneous flank tumor-bearing mouse model was used for the evaluation of in vivo efficacy of ATRA-sensitized radiotherapy. 2×10^6 MC38 cells were injected into the right flank subcutaneous tissues of C57BL/6 background mice. […] After administration, mice were anaesthetized with 2% (v/v) isoflurane and the tumors were irradiated daily with X-ray at a dose of 2 Gy/fraction (225 kVp, 13 mA, 0.3 mm-Cu filter) for a total of 3 fractions. Oil (equal volume/each) was administrated daily with or without irradiation as controls. […] All the mice were sacrificed when the tumors reached about 2,000 mm^3.

The subject of a further series is LLC cells. The experiment in a line: Tumor re-challenge of cured mice with LLC cells. Particulars: mice cured by IR+RA vs naive mice, 1×10^6 LLC cells. The procedure: 1×10^6 MC38, B16/F1, Renca or CT26 cells were subcutaneously implanted into flanks of mice. Tumors were irradiated using a Phillips IR250 orthovoltage X-ray generator (Phillips, Amsterdam, the Netherlands) operating at 250 kV 15 mA. Subcutaneous local tumors were irradiated by shielding bodies with a cylindrical lead cover with only flank tumors exposed for radiation. ATRA (400 μg/mice/day) was administered by oral gavage for 10 days. For the two-tumor model, 1×10^6 and 0.7×10^6 MC38 cells were subcutaneously implanted into the right and left flank of mice respectively. For the tumor re-challenge assay, both the cured mice and the naive mice were re-challenged with 5×10^6 MC38 or 1×10^6 LLC cells respectively. Tumors were measured along two diameters (length and width) and depth twice weekly and volumes were calculated as length×width×depth/2. For CD8 and CD4 T cell depletion experiments, 200 μg antibodies were injected i.p. on day 0, 2, 5 and 8 after radiation. Anti-CD11b antibody was injected i.p. every two days starting 1 day before radiation. Anti-PD-L1 antibody was administered i.p. on day 0, 3, and 7 after radiation at 200 μg/mouse. Anti-IFN-γ was administered i.p. at 500 μg/mouse every 7 days. Anti-NK1.1 antibody was administered via i.p. at 25 μg/mouse every 3 days for 3 doses. Anti-GM-CSF antibody was given by i.p. injection at 250 μg/mouse every 2 days. […]

The subject of series [3] is MC38 cell antigen-specific CD8+ T cells. The experiment in a line: ELISPOT assay for IFN-γ-secreting CD8+ T cells. The protocol:
MC38 cells were irradiated (40 Gy) and cultured overnight. CD8^+ T cells were isolated with EasySep mouse CD8+ positive selection kit (18953, STEMCELL Technologies, Vancouver, Canada) from draining lymph nodes of tumor-bearing mice on day 8 after treatment. 2×10^5 isolated CD8^+ T cells and 2×10^4 irradiated MC38 cells were plated onto 96-well PVDF-backed microplates coated with monoclonal antibody specific for mouse IFN-γ for 72 hours. Spots were developed by following the manufacturer's protocol (BD Biosciences, Franklin Lakes, New Jersey, United States of America).

For series [4], the system named is chemokines and cytokines in tumors. Kind of series: Multiplex cytokine/chemokine assay of tumor homogenates. The protocol: (§1) Whole tumors were excised at indicated time point post treatment. Tumors were weighed and homogenized in PBS with the presence of protease inhibitor cocktails at a ratio of 1 ml per gram of tissue. 25 μl of supernatants were subjected to a bead-based cytokine and chemokine assay (a mouse inflammation panel and chemokine panel sold under the tradename LEGENDPLEX™ (BioLegend, San Diego, California, United States of America). The assays were analyzed using a LSRII flow cytometer and software sold under the tradename LEGENDPLEX™ (both from BioLegend, San Diego, California, United States of America). IFN-γ was measured using IFN-γ flex CBA set (BD Biosciences, Franklin Lakes, New Jersey, United States of America). TNF-α concentration was measured using ELISA kit from R&D Systems (MTA00B; Minneapolis, Minnesota, United States of America). For nitrite assay, equal weight of tumors were cut into pieces and cultured in DMEM medium for 2 hours. The production of NO in the supernatants was measured indirectly by measuring the concentration of nitrite by using the Griess reagent nitrite measurement kit (Cell Signaling Technology, Danvers, Massachusetts, United States of America; #13547).
To determine whether RA has direct cytotoxic and/or radiosensitizing effects on tumor cells, MC38 cells were cultured with RA (0 nM to 2000 nM) after IR (0 Gy to 15 Gy) for three days. […] Since both IR and RA regulate immune responses, studies were conducted to examine how the combination treatment changes the tumor immune environment. Using a multiplex assay, the level of chemokines and cytokines in tumors three days after treatment was determined.

The subject of another series is nitrite (iNOS product). The experiment in a line: Nitrite assay of tumor fragments cultured ex vivo. As to conditions: IR+RA treated tumors, day 4, 2 hours culture. The protocol: as §1
Where [5] appears, read: ATRA 400 μg/each oral gavage daily plus X-ray 2 Gy/fraction.
[6] abbreviates: IR+RA compared to other treatments.

For the compound `CC1=C(/C=C/C(C)=C/C=C/C(C)=C/C(=O)O)C(C)(C)CCC1` [RA, all-trans retinoic acid], the MC38 tumor growth result in series [1] (IR (15 Gy) plus RA 400 μg/dose oral gavage, compared to untreated controls or any single treatment) was “synergistically inhibited tumor growth”; in series [1] (IR+RA, tumors grown in Rag1−/− mice, in contrast to wild type mice), “did not respond”; in series [1] (RA alone, 400 μg/dose oral gavage) it was “no significant effect”; in series [1] (higher dose of RA alone (800 μg/mouse/dose) for 7 days), “inhibited”; in series [2] (setting [5]), “greatly regressed the growth of tumors”. The complete tumor regression in series [1] (IR (15 Gy) plus RA combination treatment) is recorded as 17 of 19. Besides, the tumor inhibition result in series [1] (IR with RA administered by i.p. injection), in series [1] (IR with RA at a lower dose (200 μg/dose) by oral gavage) and in series [1] (IR with slow RA-releasing pellets implanted subcutaneously) was “Significant tumor inhibition effects” in each case. Moreover, in series [1] (RA alone), the survival was ≤ 50 days. Moreover, in series [2] (setting [5]), the “mice totally free of tumors” value was 5 out of 5. The body weight entry in series [2] (ATRA and X-ray 2 Gy/fraction) was “did not lose body weight”. In addition, in series [2] (ATRA plus X-ray 2 Gy/fraction), the “time without tumor regrowth” value was ≥ 30 days. Further, the “growth of LLC after re-challenge” value in the series with LLC cells was “grew at the same rate”. In series [3] (IR+RA compared to control or single treatments), the “tumor antigen-specific CD8+ T cell priming in draining lymph nodes (IFN-γ ELISPOT)” value is recorded as “significantly enhanced”. Further, the “priming of CD8+ T cells from DLN of non-irradiated tumors (IFN-γ production)” value in series [3] (primary tumor received IR+RA combination treatment) was “augmented”. Also, the “IFN-β level in tumors” value in series [4] (setting [6]) was “significantly elevated”. Moreover, in series [4] (setting [6]), the “IFN-γ level in tumors” value is reported as “significantly elevated”. In series [4] (setting [6]), the “IL-1 level in tumors” value is listed as “significantly elevated”. In addition, in series [4] (setting [6]), the “IL-6 level in tumors” value is “significantly elevated”. For the same compound, the “increase of GM-CSF in whole tumor homogenates” value in series [4] (IR+RA, three days after treatment) is recorded as “more than 5 fold”. Besides, the “CXCL9 level in tumors” value in series [4] (radiation and RA treatment) is “elevated”. The “CXCL10 level in tumors” value in series [4] (radiation and RA treatment) is listed as “elevated”. Further, in the series on nitrite (iNOS product), the “nitrite level in culture media of tumors cultured ex vivo” value was determined as 19.8 µM.
